Test results taken from the supplement of paper PMC10307832.

Assays:
Assay in all cases: relative viability (nuclei count vs DMSO), 5 days (fraction); higher = more cells survive
AZ628 + Linsitinib = compound: CC1=C(C=C(C=C1)NC(=O)C2=CC(=CC=C2)C(C)(C)C#N)NC3=CC4=C(C=C3)N=CN(C4=O)C [AZ628] + C[C@]1(O)C[C@@H](c2nc(-c3ccc4ccc(-c5ccccc5)nc4c3)c3c(N)nccn32)C1 [Linsitinib] (partner 1 µM)
Outline: (§1)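 Lung cancer cell lines were pin-tool dosed in 1536-well plates on the day after seeding, with either a lone drug or a fixed anchor-drug dose plus five library-drug doses (not always all listed) in √10 steps. Nuclei were counted on 4× images after 5 days. Relative viability is the ratio of treated-well to vehicle-well nuclei counts, with each value a median of duplicate plates.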

[1] = compound: C[As](C)SC[C@H](NC(=O)CC[C@H](N)C(=O)O)C(=O)NCC(=O)O [Darinaparsin] + CCNC(=O)c1noc(-c2cc(C(C)C)c(O)cc2O)c1-c1ccc(CN2CCOCC2)cc1 [Luminespib] (partner 0.01 µM)
Outline: as §1

Darinaparsin + OSI-027 = compound: C[As](C)SC[C@H](NC(=O)CC[C@H](N)C(=O)O)C(=O)NCC(=O)O [Darinaparsin] + COc1cccc2cc(-c3nc([C@H]4CC[C@H](C(=O)O)CC4)n4ncnc(N)c34)[nH]c12 [OSI-027] (partner 0.5 µM)
Outline: as §1

[2] = compound: C[As](C)SC[C@H](NC(=O)CC[C@H](N)C(=O)O)C(=O)NCC(=O)O [Darinaparsin] + Nc1nc2[nH]cc(CCc3ccc(C(=O)N[C@@H](CCC(=O)O)C(=O)O)cc3)c2c(=O)[nH]1 [Pemetrexed] (partner 0.2 µM)
Outline: as §1

| Cell Line | relative viability (AZ628 + Linsitinib; first compound 0.08 µM) | relative viability (AZ628 + Linsitinib; first compound 0.253 µM) | relative viability (AZ628 + Linsitinib; first compound 0.8 µM) | relative viability (AZ628 + Linsitinib; first compound 2.53 µM) | relative viability (AZ628 + Linsitinib; first compound 8 µM) | relative viability ([1]; first compound 0.08 µM) | relative viability ([1]; first compound 0.8 µM) | relative viability ([1]; first compound 2.53 µM) | relative viability ([1]; first compound 8 µM) | relative viability (Darinaparsin + OSI-027; first compound 0.08 µM) | relative viability (Darinaparsin + OSI-027; first compound 0.8 µM) | relative viability (Darinaparsin + OSI-027; first compound 2.53 µM) | relative viability (Darinaparsin + OSI-027; first compound 8 µM) | relative viability ([2]; first compound 0.08 µM) | relative viability ([2]; first compound 0.8 µM) | relative viability ([2]; first compound 2.53 µM) | relative viability ([2]; first compound 8 µM) |
| --- | --- | --- | --- | --- | --- | --- | --- | --- | --- | --- | --- | --- | --- | --- | --- | --- | --- |
| NCI-H2009 | 1.06 | 0.973 | 0.724 | 1.05 | 0.358 | 1.18 | 1.01 | 1.01 | 1.07 | 0.61 | 0.657 | 0.584 | 0.587 | 1.09 | 1.07 | 1 | 1.08 |
| SK-LU-1 | 0.728 | 1 | 0.907 | 1.07 | 0.901 | 0.203 | 0.182 | 0.214 | 0.169 | 0.363 | 0.299 | 0.257 | 0.351 | 1.21 | 0.942 | 0.787 | 1.18 |
| RERF-LC-KJ | 0.799 | 0.874 | 0.841 | 0.855 | 0.7 | 1.97 | 1.21 | 1.11 | 1.15 | 0.592 | 0.574 | 0.527 | 0.596 | 0.513 | 0.441 | 0.448 | 0.484 |
| NCI-H322M | 1.05 | 0.939 | 1.01 | 0.854 | 0.662 | 1.01 | 0.859 | 0.596 | 0.839 | 0.611 | 0.531 | 0.545 | 0.573 | 0.695 | 0.582 | 0.589 | 0.618 |
| LK-2 | 0.694 | 0.458 | 0.437 | 0.527 | 0.235 | 0.175 |  | 0.173 | 0.174 | 0.188 | 0.19 | 0.181 | 0.199 | 0.24 |  | 0.286 | 0.329 |
| SK-MES-1 | 0.98 | 1.06 | 0.939 | 1.03 | 0.637 | 1.19 | 0.691 | 0.88 | 0.864 | 0.627 | 0.743 | 0.561 | 0.819 | 1.17 | 0.924 | 0.924 | 1.12 |
| NCI-H1299 | 0.987 | 1.04 | 0.993 | 0.91 | 0.579 |  |  |  |  |  |  |  |  |  |  |  |  |
| NCI-H2228 | 0.504 | 0.686 | 0.622 | 1.1 | 0.517 | 0.162 | 0.206 | 0.135 | 0.102 | 0.778 | 0.5 | 0.483 | 0.78 | 0.379 | 0.322 | 0.325 | 0.427 |
| NCI-H1792 | 0.583 | 0.54 | 0.435 | 0.48 | 0.339 | 0.681 | 0.387 |  | 0.539 | 0.847 | 0.604 | 0.866 | 0.96 | 1.14 | 0.829 |  | 0.921 |
| LOU-NH91 | 0.962 | 1 | 1.07 | 0.964 | 0.66 | 0.407 | 0.31 | 0.306 | 0.345 | 0.74 | 0.689 | 0.711 | 0.79 | 0.414 | 0.431 | 0.314 | 0.384 |
| IA-LM | 0.761 | 0.711 | 0.509 | 0.353 | 0.252 |  |  |  |  |  |  |  |  |  |  |  |  |
| SW 900 |  |  |  |  |  | 0.169 | 0.169 | 0.17 | 0.166 | 0.851 | 0.547 | 0.72 | 0.756 | 0.402 |  | 0.481 | 0.517 |
| LU99A | 0.485 | 0.444 | 0.686 | 0.678 | 0.274 | 0.228 | 0.24 | 0.241 | 0.222 | 0.311 | 0.298 | 0.337 | 0.271 | 0.19 | 0.161 | 0.384 | 0.194 |
| NCI-H661 | 0.474 | 0.523 | 0.49 | 0.517 | 0.443 | 0.934 | 0.874 | 1.08 | 1.04 | 0.722 | 0.677 | 0.658 | 0.69 | 0.915 | 0.922 | 0.921 | 1.02 |
| EBC-1 | 0.87 | 0.843 | 0.999 | 0.773 | 0.885 |  |  |  |  |  |  |  |  |  |  |  |  |
| NCI-H3122 | 0.931 | 0.83 | 0.686 | 0.701 | 0.388 | 0.0869 | 0.0882 | 0.107 | 0.112 | 1.21 | 1 | 0.95 | 1.14 | 0.195 | 0.193 | 0.197 | 0.222 |
| LC-2-ad | 0.882 | 0.829 | 0.883 | 0.832 | 0.486 | 1.11 | 1.02 | 0.797 | 0.734 | 0.877 | 0.762 | 0.67 | 0.759 | 0.283 | 0.272 | 0.27 | 0.289 |
| HCC-78 | 0.704 | 0.524 | 0.479 | 0.499 | 0.518 |  |  |  |  | 0.375 | 0.394 | 0.379 | 0.372 | 0.953 | 0.884 | 0.838 | 0.964 |
| SW 1573 | 0.599 | 0.725 | 0.661 | 0.632 | 0.412 | 0.23 | 0.364 | 0.302 | 0.249 | 0.736 | 0.627 | 0.611 | 0.87 | 1 | 0.84 | 0.815 | 0.939 |
| NCI-H358 | 0.644 | 0.622 | 0.66 | 0.582 | 0.398 | 0.416 | 0.332 |  | 0.344 | 0.988 | 0.76 | 0.846 | 0.793 | 0.176 | 0.162 | 0.172 | 0.18 |
| ChaGo-K-1 |  |  |  |  |  | 0.692 | 0.502 | 0.55 | 0.786 | 0.612 | 0.518 | 0.516 | 0.715 | 0.251 | 0.266 | 0.271 | 0.263 |
| 201T | 1.06 | 0.978 | 1.07 | 1 | 0.998 | 1.1 | 1.03 | 0.958 | 1.16 | 0.963 | 0.701 |  | 0.93 | 0.374 | 0.33 | 0.33 | 0.363 |
